The results in this text go back to PubChem BioAssay (NCI).

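Growth conditions: 96-well plates. Treatment: test compound, 48 hours, 5 concentrations. Analysis: linear interpolation between bracketing concentrations; unreached endpoints set to highest concentration. GI50: concentration for 50% inhibition of growth. TGI marks complete inhibition of growth.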

Test systems include A549 NSCLC; CAKI-1 renal; CCRF-CEM leukemia; M14 melanoma; NCI-H460 lung; OVCAR-8 ovarian; SF-268 CNS; SK-OV-3 ovarian; SN12C renal; EKVX NSCLC.
What all share (assay): NCI tumour cell line growth inhibition, 48 h

For the compound `COC(=O)[C@@H](Cc1c[nH]c2ccccc12)NC(=O)/C=C/c1ccccc1`, the GI50 in the assay with A549 NSCLC was 3.91 µM; with CAKI-1 renal, 3.42 µM; with CCRF-CEM leukemia, 3.45 µM; in the assay on M14 melanoma, 3.05 µM; in the assay with NCI-H460 lung it was 3.26 µM; in the assay with OVCAR-8 ovarian it was 3.6 µM. Also, the results for the GI50 in the assay with SF-268 CNS, in the assay with SK-OV-3 ovarian and in the assay on SN12C renal were 4.52 µM, 3.15 µM and 4.49 µM, respectively. Besides, the TGI in the assay on A549 NSCLC was over 100 µM; in the assay with CAKI-1 renal it was over 100 µM; in the assay on CCRF-CEM leukemia, over 100 µM; in the assay on M14 melanoma it was over 100 µM; in the assay with NCI-H460 lung, 15.1 µM; in the assay with OVCAR-8 ovarian, over 100 µM. Besides, the TGI in the assay with SF-268 CNS, in the assay with SK-OV-3 ovarian and in the assay on SN12C renal was over 100 µM throughout.

On to `Oc1ccc(Br)cc1/C=N/NC(=S)NC12CC3CC(CC(C3)C1)C2`, for which the GI50 is 1.82 µM in the assay on A549 NSCLC; 2.67 µM with CAKI-1 renal; 0.897 µM in the assay with CCRF-CEM leukemia; 1.86 µM in the assay on M14 melanoma; 0.645 µM in the assay on NCI-H460 lung; 1.6 µM in the assay on OVCAR-8 ovarian. The values for the GI50 in the assay on SF-268 CNS, in the assay with SK-OV-3 ovarian and with SN12C renal were 1.44 µM, 3.54 µM and 1.63 µM, respectively. The TGI was 5.07 µM in the assay on A549 NSCLC; 8.59 µM with CAKI-1 renal; 8.14 µM with CCRF-CEM leukemia; 5.84 µM with M14 melanoma; 2.17 µM in the assay with NCI-H460 lung; 4.4 µM in the assay with OVCAR-8 ovarian. The TGI was found to be 4.14 µM with SF-268 CNS, 11.9 µM with SK-OV-3 ovarian and 3.18 µM in the assay on SN12C renal.

Turning to `COc1ccc(/C(Cl)=C(\C=O)c2ccc(Br)cc2)cc1OC`, the TGI in the assay with A549 NSCLC, with CAKI-1 renal, in the assay on EKVX NSCLC, in the assay on M14 melanoma, in the assay on NCI-H460 lung and with OVCAR-8 ovarian was over 100 µM in each case. In addition, the TGI with SF-268 CNS, in the assay on SK-OV-3 ovarian and in the assay on SN12C renal was over 100 µM each time.

Consider `CCOC(=O)N1C/C(=C/c2ccc(OC)cc2)C(=O)/C(=C/c2ccc(OC)cc2)C1`, for which the GI50 was 2.33 µM with A549 NSCLC; 4.67 µM with CAKI-1 renal; 2.85 µM in the assay with CCRF-CEM leukemia; 2.11 µM in the assay with M14 melanoma; 3.13 µM with NCI-H460 lung; 3.49 µM in the assay on OVCAR-8 ovarian. The figures for the GI50 in the assay with SF-268 CNS, in the assay on SK-OV-3 ovarian and in the assay with SN12C renal were 3.58 µM, 3.63 µM and 1.91 µM, respectively. For the same compound, the TGI in the assay with A549 NSCLC is 6.96 µM; in the assay with CAKI-1 renal, over 70.1 µM; in the assay with CCRF-CEM leukemia it was over 100 µM; in the assay on M14 melanoma it was 5.2 µM; in the assay with NCI-H460 lung, over 100 µM; with OVCAR-8 ovarian, 14.6 µM. Moreover, the TGI in the assay on SF-268 CNS is over 45.1 µM; in the assay on SK-OV-3 ovarian, 16.6 µM; in the assay on SN12C renal, 4.23 µM.

On to `CCOC(=O)c1c(C)n(CC(C)C)c2c1cc1oc(=O)c(=O)n3cnc2c13`, for which the GI50 in the assay on A549 NSCLC was 15.7 µM; in the assay on CAKI-1 renal, 11.4 µM; with EKVX NSCLC it was 17.4 µM; with M14 melanoma it was 16.9 µM; with NCI-H460 lung, 16.7 µM; in the assay on OVCAR-8 ovarian, 12.5 µM. Moreover, the figures for the GI50 in the assay on SF-268 CNS, with SK-OV-3 ovarian and in the assay on SN12C renal were 18 µM, 20.4 µM and 10.7 µM, respectively. Further, the TGI was over 50 µM with A549 NSCLC; 29.2 µM with CAKI-1 renal; over 50 µM in the assay on EKVX NSCLC; over 50 µM in the assay on M14 melanoma; over 50 µM with NCI-H460 lung; 36.7 µM in the assay with OVCAR-8 ovarian. The figures for the TGI in the assay on SF-268 CNS, with SK-OV-3 ovarian and with SN12C renal were over 50 µM, over 50 µM and 22.9 µM, respectively.

With `COc1ccc(OC)c(-c2cc(-c3ccccc3)nn2-c2ccc(S(N)(=O)=O)cc2)c1`, the GI50 in the assay on A549 NSCLC is 13.1 µM; with CAKI-1 renal, 14.8 µM; with CCRF-CEM leukemia, 4.17 µM; in the assay with EKVX NSCLC, 18.1 µM; in the assay with M14 melanoma, 5.38 µM; in the assay on NCI-H460 lung it was 11 µM. For the same compound, the values for the GI50 in the assay on OVCAR-8 ovarian, with SF-268 CNS and with SN12C renal were 10.2 µM, 12.6 µM and 12.5 µM, respectively. Besides, the TGI is 42.6 µM with A549 NSCLC; 32.8 µM in the assay with CAKI-1 renal; over 100 µM with CCRF-CEM leukemia; 39.1 µM in the assay with EKVX NSCLC; 16.6 µM in the assay with M14 melanoma; 77.3 µM with NCI-H460 lung. The TGI stood at 27 µM with OVCAR-8 ovarian, 27.5 µM in the assay with SF-268 CNS and 25 µM in the assay on SN12C renal.

Turning to `O=C1OC(c2ccccc2)=N/C1=C\c1c(O)cc(O)cc1O`, the TGI in the assay on A549 NSCLC, with CAKI-1 renal, in the assay with CCRF-CEM leukemia, in the assay on EKVX NSCLC, in the assay with M14 melanoma and in the assay with OVCAR-8 ovarian was over 100 µM throughout. Besides, the TGI in the assay with SF-268 CNS, in the assay with SK-OV-3 ovarian and in the assay on SN12C renal was over 100 µM in each case.

Consider `COc1cc(OC)c(OC)cc1/C=C1\C=Cc2ccccc21`, for which the TGI in the assay with A549 NSCLC is over 100 µM; with CCRF-CEM leukemia it was over 100 µM; in the assay on EKVX NSCLC it was over 100 µM; in the assay with NCI-H460 lung it was 38 µM; with OVCAR-8 ovarian, over 100 µM; in the assay with SF-268 CNS it was over 100 µM. Besides, the values for the TGI in the assay with SK-OV-3 ovarian and with SN12C renal were 59.8 µM and 36.7 µM, respectively.

Take `C[C@@]1(c2ncncc2F)NC(=O)c2cc(-c3cn[nH]c3)ccc21`: the GI50 in the assay on A549 NSCLC is 28.2 µM; in the assay with CCRF-CEM leukemia, 42.3 µM; in the assay on EKVX NSCLC, 22.1 µM; with M14 melanoma it was 15.2 µM; with NCI-H460 lung, 25 µM; with OVCAR-8 ovarian, 26.9 µM. Moreover, the GI50 is 28.4 µM with SF-268 CNS, 18.5 µM in the assay with SK-OV-3 ovarian and 26.5 µM in the assay with SN12C renal. Further, the TGI is over 100 µM with A549 NSCLC; over 100 µM in the assay on CCRF-CEM leukemia; over 100 µM in the assay with EKVX NSCLC; 77.7 µM in the assay on M14 melanoma; over 100 µM in the assay with NCI-H460 lung; over 100 µM with OVCAR-8 ovarian. In addition, the figures for the TGI in the assay on SF-268 CNS, with SK-OV-3 ovarian and in the assay on SN12C renal were over 100 µM, 76 µM and over 100 µM, respectively.
